Tested on: subjects with TRD
Assay: Example 1 Part B: preliminary efficacy on depression rating scales in subjects with TRD
Assay type: in vivo, human
Conditions: for Effect size, HAM-D6 for ≤55 years old / Effect size, HAM-D6 for ≥36 MADRS at baseline / Effect size, CGI-S for ≤55 years old / Effect size, MADRS Total for ≤55 years old / Effect size, CGI-S for ≥36 MADRS at baseline / Effect size, MADRS Total for ≥36 MADRS at baseline / Effect size, IDS-SR Psychomotor Domain / Effect size, MADRS-06 (core) / Effect size, MADRS-08 (core-plus): post-hoc; for Effect size, HAM-D6 for ≤55 years old / Effect size, CGI-S for ≤55 years old / Effect size, MADRS Total for ≤55 years old: N = 14; for Effect size, HAM-D6 for ≥36 MADRS at baseline / Effect size, CGI-S for ≥36 MADRS at baseline / Effect size, MADRS Total for ≥36 MADRS at baseline: N = 16
Description: Primary Efficacy Endpoint: The primary efficacy endpoint was the difference between the compound A group and the placebo group in change from baseline in the Montgomery Asberg Depression Rating Scale (MADRS) total score at Day 2 (24 hours post dose).
Secondary Efficacy Endpoints: Secondary preliminary efficacy endpoints were the difference between the compound A group and the placebo group in: • change from baseline in the MADRS total score at each time point • change from baseline in the Hamilton Depression Rating Scale-6 Item (HAM-D6) total score at each time point • change from baseline in the IDS-SR30 total score and domain scores at each time point • change from baseline in the Clinical Global Impression-Severity (CGI-S) score at each time point
Preliminary Efficacy Evaluations: Other psychiatric evaluations were performed to assess preliminary efficacy in Part B only. These evaluations included the Montgomery-Asberg Depression Rating Scale (MADRS), the Hamilton Depression Rating Scale-6 Item (HAM-D6), the Clinical Global Impression-Severity (CGI-S), and the Inventory of Depressive Symptomatology (30-item, self-rated version) (IDS-SRN). Montgomery-Asberg Depression Rating Scale (MADRS).
The MADRS is a clinician-administered scale used to assess the range of symptoms that are most frequently observed in patients with major depression. The scale includes 10 items, each scored on a scale of 0 to 6. The MADRS was administered centrally by a third-party independent rater blinded to protocol, visit, and treatment.
Hamilton Depression Rating Scale-6 Item (HAM-D6): The HAM-D6 is a clinician-administered scale used to assess key domains of depressive symptomatology. The HAM-D6 was derived from the original 17-item version of the scale (HAM-D17). Five of the six items are scored on a scale of 0 to 4, and one item is scored on a scale of 0 to 2.
Clinical Global Impression-Severity (CGI-S): The CGI-S is a 7-point clinician-administered scale used to assess the severity of the patient's illness at the time of assessment relative to the clinician's past experience with patients who have the same diagnosis.
Inventory of Depressive Symptomatology (30-Item, Self-Rated Version) (IDS-SR30): The IDS-SR30 is a self-rated scale used to assess the severity of depressive symptomatology. The scale includes 30 items, each scored on a scale of 0 to 3.
The MADRS total score was centrally administered. The HAM-D6 was site-administered. The CGI-S was site physician administered. The IDS-SR was patient self-administered. MADRS-6 and MADRS-8 scores were then extrapolated post hoc from the MADRS total scores.
MADRS-10 items include apparent sadness, reported sadness, inner tension, reduced sleep, reduced appetite, concentration difficulties, lassitude, inability to feel, pessimistic thoughts, and suicidal thoughts. MADRS-6 items include apparent sadness, reported sadness, inner tension, lassitude, inability to feel, and pessimistic thoughts. MADRS-8 items include apparent sadness, reported sadness, inner tension, concentration difficulties, lassitude, inability to feel, pessimistic thoughts, and suicidal thoughts. HAM-D6 items include depressed mood, low self-esteem/guilt, work and interests, psychomotor retardation, psychic anxiety, and somatic symptoms.
When determining clinically significant antidepressant effect, it is recommended to use standardized effect size statistics. The correct use of depression rating scales in clinical trials of antidepressants is to indicate the effect size of the specific items of depression and to accept an effect size of 0.40 or higher as being the clinically significant effect. An effect size of ≥0.2 indicates early improvement. An effect size of ≥0.4 indicates a clinical response.

[1] = single 2400 mg vs placebo, 12 h
[2] = single 2400 mg vs placebo, 24 h
[3] = single 2400 mg vs placebo, 24 h, N = 31
[4] = single 2400 mg vs placebo, 24 h, prespecified, N = 31
[5] = single 2400 mg vs placebo, 36 h
[6] = single 2400 mg vs placebo, 48 h
[7] = single 2400 mg vs placebo, 48 h, N = 31
[8] = single 2400 mg vs placebo, 48 h, prespecified, N = 31
[9] = single 2400 mg vs placebo, 72 h
[10] = single 2400 mg vs placebo, 72 h, N = 31
[11] = single 2400 mg vs placebo, 72 h, prespecified, N = 31
[12] = single 2400 mg, 24 hours post dose

CC(C)(C[C@H](N)C(=O)O)C(F)F [Compound A, (S)-2-amino-5,5-difluoro-4,4-dimethylpentanoic acid]
duration of numerical benefits on HAM-D6 (single 2400 mg): 24 to 72 h | onset of efficacy on HAM-D6 (single 2400 mg): as early as two hours post-dose | MADRS items with greater impact than placebo (single 2400 mg vs placebo): inner tension, concentration, pessimistic thoughts, and inability to feel | Effect size, HAM-D6 for ≤55 years old (single 2400 mg vs placebo, 2 h): 0.8 | Effect size, HAM-D6 for ≥36 MADRS at baseline (single 2400 mg vs placebo, 2 h): 1.0 | Effect size, HAM-D6 (single 2400 mg vs placebo, 2 h, prespecified, N = 31): 0.6 | Effect size, HAM-D6 for ≤55 years old (single 2400 mg vs placebo, 4 h): 1.0 | Effect size, HAM-D6 for ≥36 MADRS at baseline (single 2400 mg vs placebo, 4 h): 1.1 | Effect size, HAM-D6 (single 2400 mg vs placebo, 4 h, prespecified, N = 31): 0.8 | Effect size, HAM-D6 for ≤55 years old (single 2400 mg vs placebo, 8 h): 1.1 | Effect size, HAM-D6 for ≥36 MADRS at baseline (single 2400 mg vs placebo, 8 h): 0.8 | Effect size, HAM-D6 (single 2400 mg vs placebo, 8 h, prespecified, N = 31): 0.7 | Effect size, HAM-D6 for ≤55 years old [1]: 1.3 | Effect size, HAM-D6 for ≥36 MADRS at baseline [1]: 0.9 | Effect size, HAM-D6 (single 2400 mg vs placebo, 12 h, prespecified, N = 31): 0.8 | Effect size, CGI-S for ≤55 years old [2]: 0.2 | Effect size, HAM-D6 for ≤55 years old [2]: 0.9 | Effect size, MADRS Total for ≤55 years old [2]: 0.6 | Effect size, CGI-S for ≥36 MADRS at baseline [2]: 0.2 | Effect size, HAM-D6 for ≥36 MADRS at baseline [2]: 0.8 | Effect size, MADRS Total for ≥36 MADRS at baseline [2]: 0.4 | Effect size, IDS-SR Psychomotor Domain [3]: 0.8 | Effect size, MADRS-06 (core) [3]: 0.3 | Effect size, MADRS-08 (core-plus) [3]: 0.3 | Effect size, CGI-S Change from baseline [4]: -0.1 | Effect size, HAM-D6 [4]: 0.5 | Effect size, IDS-SR 30 Total Score [4]: 0.3 | Effect size, MADRS Total Score (prelim. primary @24 h) [4]: 0.1 | Effect size, HAM-D6 for ≤55 years old [5]: 1.3 | Effect size, HAM-D6 for ≥36 MADRS at baseline [5]: 0.9 | Effect size, HAM-D6 (single 2400 mg vs placebo, 36 h, prespecified, N = 31): 0.5 | Effect size, CGI-S for ≤55 years old [6]: 0.4 | Effect size, HAM-D6 for ≤55 years old [6]: 1.2 | Effect size, MADRS Total for ≤55 years old [6]: 0.6 | Effect size, CGI-S for ≥36 MADRS at baseline [6]: 0.7 | Effect size, HAM-D6 for ≥36 MADRS at baseline [6]: 0.9 | Effect size, MADRS Total for ≥36 MADRS at baseline [6]: 0.3 | Effect size, IDS-SR Psychomotor Domain [7]: 0.3 | Effect size, MADRS-06 (core) [7]: 0.3 | Effect size, MADRS-08 (core-plus) [7]: 0.3 | Effect size, CGI-S Change from baseline [8]: 0.1 | Effect size, HAM-D6 [8]: 0.5 | Effect size, IDS-SR 30 Total Score [8]: 0.3 | Effect size, MADRS Total Score [8]: 0.2 | Effect size, CGI-S for ≤55 years old [9]: 0.2 | Effect size, HAM-D6 for ≤55 years old [9]: 1.1 | Effect size, MADRS Total for ≤55 years old [9]: 0.3 | Effect size, CGI-S for ≥36 MADRS at baseline [9]: 1.0 | Effect size, HAM-D6 for ≥36 MADRS at baseline [9]: 0.8 | Effect size, MADRS Total for ≥36 MADRS at baseline [9]: 0.3 | Effect size, IDS-SR Psychomotor Domain [10]: 0.6 | Effect size, MADRS-06 (core) [10]: 0.1 | Effect size, MADRS-08 (core-plus) [10]: 0.1 | Effect size, CGI-S Change from baseline [11]: 0.2 | Effect size, HAM-D6 [11]: 0.4 | Effect size, IDS-SR 30 Total Score [11]: 0.3 | Effect size, MADRS Total Score [11]: -0.1 | MADRS concentration scores [12]: marked improvement | MADRS item Apparent Sadness, % CFB [12]: −12.3% | MADRS item Apparent Sadness, CFB [12]: −0.56 | MADRS item Apparent Sadness, score Day 1 [12]: 4.00 | MADRS item Concentration, % CFB [12]: −23.1% | MADRS item Concentration, CFB [12]: −0.94 | MADRS item Concentration, score Day 1 [12]: 3.13 | MADRS item Inability to Feel, % CFB [12]: −12.9% | MADRS item Inability to Feel, CFB [12]: −0.56 | MADRS item Inability to Feel, score Day 1 [12]: 3.81 | MADRS item Inner Tension, % CFB [12]: −40.5% | MADRS item Inner Tension, CFB [12]: −1.06 | MADRS item Inner Tension, score Day 1 [12]: 1.56 | MADRS item Lassitude, % CFB [12]: −1.8% | MADRS item Lassitude, CFB [12]: −0.06 | MADRS item Lassitude, score Day 1 [12]: 3.44 | MADRS item Pessimistic Thoughts, % CFB [12]: −23.3% | MADRS item Pessimistic Thoughts, CFB [12]: −0.63 | MADRS item Pessimistic Thoughts, score Day 1 [12]: 2.06 | MADRS item Reduced Appetite, % CFB [12]: −14.3% | MADRS item Reduced Appetite, CFB [12]: −0.44 | MADRS item Reduced Appetite, score Day 1 [12]: 2.63 | MADRS item Reduced Sleep, % CFB [12]: −7.4% | MADRS item Reduced Sleep, CFB [12]: −0.31 | MADRS item Reduced Sleep, score Day 1 [12]: 3.94 | MADRS item Reported Sadness, % CFB [12]: −19.2% | MADRS item Reported Sadness, CFB [12]: −0.94 | MADRS item Reported Sadness, score Day 1 [12]: 3.94 | MADRS item Suicidal Thoughts, % CFB [12]: −9.1% | MADRS item Suicidal Thoughts, CFB [12]: −0.06 | MADRS item Suicidal Thoughts, score Day 1 [12]: 0.63 | MADRS-10 TOTAL SCORE, CFB [12]: −5.5 | Change in HAM-D6 Total Score (single 2400 mg, at 2 h): −2.0 | Change in HAM-D6 Total Score, Difference Compound A vs Placebo (single 2400 mg, at 2 h): −1.3 | Change in HAM-D6 Total Score (single 2400 mg, at 4 h): −2.6 | Change in HAM-D6 Total Score, Difference Compound A vs Placebo (single 2400 mg, at 4 h): −1.8 | Change in HAM-D6 Total Score (single 2400 mg, at 8 h): −2.9 | Change in HAM-D6 Total Score, Difference Compound A vs Placebo (single 2400 mg, at 8 h): −1.7 | Change in HAM-D6 Total Score (single 2400 mg, at 12 h): −3.9 | Change in HAM-D6 Total Score, Difference Compound A vs Placebo (single 2400 mg, at 12 h): −2.7 | Change in HAM-D6 Total Score (single 2400 mg, at 24 h): −3.5 | Change in HAM-D6 Total Score, Difference Compound A vs Placebo (single 2400 mg, at 24 h): −1.5 | Change in HAM-D6 Total Score (single 2400 mg, at 36 h): −4.3 | Change in HAM-D6 Total Score, Difference Compound A vs Placebo (single 2400 mg, at 36 h): −1.8 | Change in HAM-D6 Total Score (single 2400 mg, at 48 h): −3.7 | Change in HAM-D6 Total Score, Difference Compound A vs Placebo (single 2400 mg, at 48 h): −1.3 | Change in HAM-D6 Total Score (single 2400 mg, at 72 h): −4.1 | Change in HAM-D6 Total Score, Difference Compound A vs Placebo (single 2400 mg, at 72 h): −1.3 | HAM-D6 scores (single dose 2400 mg, FIG. 2): rapid and sustained efficacy

Reference: patent US11723890B2, “Methods of treatment using an mTORC1 modulator” (Navitor Pharmaceuticals, Inc., priority 2019, dated 2023)
